{"source": "paper PMC9420947", "about": "“^131I-Caerin 1.1 and ^131I-Caerin 1.9 for the treatment of non-small-cell lung cancer” (Frontiers in Oncology, 2022)", "key": {"[1]": {"system": "A549 cells", "assay": "Cell uptake", "format": "cell-based, human", "details": "24 hours, serum-free medium, 1.85 ×10^5Bq per well, γ count, triplicate, mean ± SD", "procedure": "A549 cells were seeded in four 24-well plates (Coring, USA) at 5×10^4 cells (500 µl) per well. The experiment was done in triplicate and included a positive-control well. After the cells were cultured in an incubator for 24 hours, the supernatant was discarded, 0.5 ml of serum-free medium was added to each well, and ^131I-Caerin 1.1 or ^131I-Caerin 1.9 and Na-^131I solution (1.85 ×10^5Bq or 2 µl per well) were added. After the cells were incubated for 2, 4, 6, or 24 hours, the cells were removed from the incubator. For the positive control, the supernatant was collected in a tube. For the experimental groups, the supernatant was discarded, and the cells were washed twice with PBS. Next, 200 µl of trypsin (GIBCO, USA) was added to each well. After digestion, the cells were washed three times with PBS and then collected in a tube to measure their radioactivity count. GraphPad Prism v9.3.0 was used to calculate the drug binding rate."}, "[2]": {"system": "A549 cells", "assay": "Cell elution (retention)", "format": "cell-based, human", "details": "24 h incubation, wash, then 24 hours in serum-free medium, 1.85 ×10^5Bq per well, γ count, triplicate, mean ± SD", "procedure": "A549 cells were seeded in four 24-well plates at 5×10^4 cells (500 µl) per well and cultured for 24 hours. The experiment was done in triplicate and included a positive-control well. The supernatant was discarded, 0.5 ml of serum-free medium was added to each well, and then ^131I-Caerin 1.1, ^131I-Caerin 1.9, or free ^131I was added (1.85 ×10^5Bq or 2 µl per well). After incubation for 24 hours, the supernatant was discarded, the cells were washed twice with PBS, 0.5 ml of serum-free medium was added to each well, and the cells were incubated for another 2, 4, 6, or 24 hours. For the positive control, the supernatant was collected in a tube. For the experimental groups, the supernatant was discarded, the cells were washed twice with PBS, and 200 µl of trypsin was added to each well. After digestion, the cells were washed three times with PBS and then collected in a tube to measure the radioactivity count. GraphPad Prism v9.3.0 was used to calculate the drug retention rate."}, "[3]": {"system": "A549 cells", "assay": "CCK-8 cell proliferation and cytotoxicity", "format": "cell-based, human", "details": "CCK-8, 20,000 KBq/ml, 24 hours, triplicate, mean ± SD", "procedure": "A549 cells were seeded in two 96-well plates at 5×10^3 cells (100 µl) per well and cultured for 24 hours at 5% CO2 and 37°C. The ^131I-Caerin 1.1, ^131I-Caerin 1.9, and Na-^131I solutions were added to a final concentration of 2500, 5000, 10,000, or 20,000 KBq/ml. In the corresponding plates for Caerin 1.1 and Caerin 1.9, the drug concentration was 3.29, 6.95, 14.29, or 30.72 µg/ml. The experiment was done in triplicate and included three control (drug-free) groups. The cells were cultured for another 24 hours. Next, 10 µl of CCK-8 solution (DOJINDO, Japan) was added to each well, and then the cells were cultured in the dark for 4-6 hours. The absorbance at 450 nm was measured in an enzyme-linked immunosorbent assay plate reader, and GraphPad Prism v9.3.0 was used to calculate the cell survival rate."}, "[4]": {"system": "A549 xenograft NSCLC tumors", "assay": "A549 subcutaneous xenograft in nude mice, tumor growth", "format": "in vivo, BALB/c female nude mice", "details": "intratumoral injection every other day, four injections, 8 μg peptide and/or 7.4 ×10^6 Bq, 3 days after the last injection, four mice per group", "excerpt": "(§1) Specific pathogen–free (SPF) 4-6-week-old (adult) BALB/c female nude mice were purchased from Guangdong Medical Laboratory Animal Center. The animals were housed at the Animal Resource Center (First Affiliated Hospital of Guangdong Pharmaceutical University) under SPF conditions. No animal was sick or died during the study. Nude mice were sacrificed by cervical dislocation in accordance with the Animal Management Measures of the Ministry of Health of the People’s Republic of China (Document no.55, 2001). All experiments were approved and were done in accordance with the guidelines of the Animal Experiment Ethics Committee of the First Affiliated Hospital of Guangdong Pharmaceutical University (Ethics approval number: FAHGPU20160316).\n(§2) A total of 100 µl of A549 cells (1×10^6 cells) suspended in PBS were inoculated subcutaneously in the axillary area of nude mice to establish a subcutaneous xenograft model. Once the tumor was 3 to 4 mm long, the nude mice were used in the following experiment. A digital caliper (Mitutoyo, Japan, CD-15APX) was used to monitor tumor size every other day. Tumor volume was calculated according to the formula: volume = width^2 × length/2.\n(§3) To reduce the thyroid uptake of ^131I, all nude mice were fed 0.1% potassium iodide (Shanghai Macklin Biochemical Co., Ltd., China) for 3 days to block the thyroid before the experiment. […]"}, "[5]": {"assay": "Body weight of A549 tumor-bearing nude mice", "format": "in vivo, BALB/c female nude mice", "details": "intratumoral injection every other day, four injections, 8 μg peptide and/or 7.4 ×10^6 Bq, 3 days after the last injection, four mice per group", "excerpt": "as §1, §2, §3"}, "[6]": {"system": "A549 cells", "format": "cell-based, human", "details": "MTT; for survival rate of A549 cells: overnight, triplicate, mean ± SD", "procedure": "The NSCLC cell line A549 was from the Stem Cell Bank of the Chinese Academy of Sciences. The medium of A549 cells contained 89% RPMI medium 1640 (GIBCO, USA), 10% heat-inactivated fetal bovine serum (Coring, USA), and 1% penicillin-streptomycin solution (GIBCO, USA). The cells were incubated in an incubator (Thermo, USA) at 37°C in 5% CO2.\nA total of 500 mg of 3-(4,5-dimethylthiazol-2-yl)-2,5-diphenyl tetrazolium bromide (MTT) powder (Sigma-Aldrich, USA) was dissolved in 100 ml of PBS to a final concentration of 5 mg/ml (0.5% MTT). The solution was stored in the dark at -20°C. A549 cells in the exponential growth phase were seeded in 96-well plates (Coring, USA) at 5×10^3 cells (100 µl) per well and then incubated at 37°C in 5% CO2 for 24 hours. Different concentrations of P3, Caerin 1.1, and Caerin 1.9 were added to the 96-well plates to reach final concentrations of 1, 5, 10, 15, 20, 25, 30, and 40 μg/ml. The experiment was done in triplicate and included control wells. The cells were cultured overnight. Once the drug’s effect was visible under the microscope, 10 µl of MTT solution was added to each well, and the cells were cultured for another 4 hours. Next, the supernatant was carefully aspirated, 150 µl of dimethyl sulfoxide solution (Sigma-Aldrich, USA) was added to each well, and the 96-well plates were placed on a shaker at low speed for 10 minutes. The absorbance at 570 nm was measured in an enzyme-linked immunosorbent assay plate reader (Thermo Scientific, USA). GraphPad Prism v9.3.0 was used calculate the half-maximal inhibitory concentration (IC50) of each drug and the survival rate (%)."}}, "note": "Like-named read-outs stand apart in the source and are kept apart here. No end group written: not given here.", "data": [{"molecule": "[131I-].[Na+]", "note": "[Na-^131I, reference compound]", "values": [{"measurement": "uptake rate by A549 cells", "setting": "[1]", "result": "0.67 ± 0.08", "unit": "%"}, {"measurement": "binding rate after elution", "setting": "[2]", "result": "4.97% ± 0.59%"}, {"measurement": "survival rate of A549 cells", "setting": "[3]", "result": "71.56% ± 9.83%"}, {"measurement": "tumor volume at the time of sacrifice", "setting": "[4]", "result": "186.30 ± 19.69", "unit": "mm^3"}, {"measurement": "tumor weight after sacrifice", "setting": "[4]", "result": "0.147 ± 0.009", "unit": "g"}, {"measurement": "body weight at the time of sacrifice", "setting": "[5]", "result": "17.99 ± 0.50", "unit": "g"}]}, {"molecule": "GLFGVLGSIAKHVLPHVVPVIAEKL-NH2 [Caerin 1.9]", "values": [{"measurement": "survival rate of A549 cells", "setting": "[6]; 10 μg/ml", "result": "74.20% ± 3.57%"}, {"measurement": "survival rate of A549 cells", "setting": "[6]; 15 μg/ml", "result": "72.65% ± 0.76%"}, {"measurement": "survival rate of A549 cells", "setting": "[6]; 20 μg/ml", "result": "36.43% ± 4.85%"}, {"measurement": "survival rate of A549 cells", "setting": "[6]; 25 μg/ml", "result": "20.43% ± 1.92%"}, {"measurement": "IC50 on A549 cells", "setting": "[6]; 1-40 μg/ml, GraphPad Prism", "result": 17.46, "unit": "µg/mL"}]}]}
